Laboratory results from US20200246316A1, “METHODS OF TREATING POST-SURGICAL PAIN WITH A THIAZOLINE ANTI-HYPERALGESIC AGENT” (CERSCI THERAPEUTICS, INC., priority 2019, published 2020).

Experiments:
[1] = test system: rat hind paw incision model; assay: Brennan incisional pain model, prophylactic paradigm; assay type: in vivo; conditions: single pre-surgical dose; 24 h, 48 h, 72 h post dose; FIG. 11
Source text: (§1) Two incisional pain models were used to assess Compound 1 effects on hyperalgesia. The first model is referred to as the Brennan model in which, under anesthesia, a 1 cm longitudinal incision to the skin and underlying fascia of a rat hindpaw is made. The second is a variation but is a more invasive procedure in which the skin and muscle are spread apart using forceps which creates a longer-lasting hypersensitivity.
Using the Brennan protocol and a prophylactic paradigm, Compound 1 (3 doses given PO) or vehicle was administered 15 min prior to incision. At the 24-, 48-, and 72-h time points post-incision, mechanical thresholds were obtained (manual von Frey filament, using up/down method).
In a subsequent experiment, the same paradigm was used with Compound 1 administered at a dose of 30 mg/kg PO along with positive control group consisting of celecoxib (30 mg/kg PO), morphine (10 mg/kg SC), and vehicle.

[2] = test system: established incision-induced mechanical hyperalgesia; assay: Brennan incisional pain model, treatment paradigm; assay type: in vivo, rat; conditions: morphine 3 mg/kg SC
Source text: as §1
Using the Brennan protocol and a treatment paradigm in rat, Compound 1 (10 and 30 mg/kg PO), morphine (3 mg/kg SC) or vehicle were administered daily at 24 h post-incision, and again at 48 and 72 h post-incision. Mechanical thresholds were obtained at 1 h and 2 h post-dose in all cohorts on all days.

## Cc1ccc(-c2cc(C(F)(F)F)nn2-c2ccc(S(N)(=O)=O)cc2)cc1 [celecoxib, reference compound]
[1]
  effect on development of mechanical hyperalgesia: no effect

## CN1CC[C@]23c4c5ccc(O)c4O[C@H]2[C@@H](O)C=C[C@H]3[C@H]1C5 [morphine, reference compound]
[2]; Compound 1 10 and 30 mg/kg PO daily, FIG. 12
  effect on established mechanical hyperalgesia (overall): analgesic at t=1 h on d1, and at t=1 h and 2 h post-dose on d2 and d3
[2]; Day 1, 2-h time point
  analgesia: this effect waned
[2]; Day 1, 1 h post-dose
  mechanical threshold: 45 g
[2]; Day 2, 1-h time point
  hyperalgesia: not hyperalgesic
[2]; Day 2, 2 h
  hyperalgesia: mild hyperalgesia
[2]; Day 2 prior to dosing (Pre-Drug (D2))
  mechanical threshold: < 15 g
[1]
  effect on development of mechanical hyperalgesia: no effect
